≈ marks a conversion by molar mass, not a printed value. Where two headings read alike, the source gives them in different places.

Common to all, as to assay type: cell-based
In one experiment the test system is PCresistant S. aureus. In words: MIC by two-fold serial agar dilution in Mueller-Hinton agar, Gp-Ib. The following applies: Staphylococcus aureus, Gp-Ib, 5 strains, PC-resistant S. aureus; read-out: Geometric Mean of MIC. Here is the method:
(§1) In the primary evaluation of the compounds of this invention, the Minimum Inhibitory Concentrations (MIC's) of the compounds were determined by the two-fold serial agar dilution method in Mueller-Hinton agar against 32 strains of test organisms in six groups.
GpIb: PCresistant S. aureus
For orientation: In agar dilution, organisms are placed on agar that contains the substance at set levels.

The subject of experiment [1] is M. morganii (1), E. cloacae (2) and S. marcescens (2). The experiment can be described thus: MIC by two-fold serial agar dilution in Mueller-Hinton agar, Gn-II. The conditions noted are these: read-out: Geometric Mean of MIC. How it is done: as §1
GnII: M. morganii (1), E. cloacae (2) and S. marcescens (2)

The subject of experiment [2] is Cephalothin(CET)sensitive E. coli (2 strains), K. pneumoniae (1) and P. mirabilis (2). In words: MIC by two-fold serial agar dilution in Mueller-Hinton agar, Gn-Ia. The following applies: read-out: Geometric Mean of MIC. How it is done: as §1
GnIa: Cephalothin(CET)sensitive E. coli (2 strains), K. pneumoniae (1) an […]

The test system of experiment [3] is Penicillin(PC)sensitive S. aureus. In words: MIC by two-fold serial agar dilution in Mueller-Hinton agar, Gp-Ia. The following applies: Staphylococcus aureus. Here is the method:
as §1
Gp-Ia: Penicillin(PC)sensitive S. aureus

The test system of the next experiment is P. aeruginosa. In words: MIC by two-fold serial agar dilution in Mueller-Hinton agar, Gn-III. The conditions noted are these: Pseudomonas aeruginosa, Gn-III, 7 strains, P. aeruginosa; read-out: Geometric Mean of MIC. How it is done:
as §1

Experiment [4] deals with CETresistant E. coli (3) and K. pneumoniae (2). In words: MIC by two-fold serial agar dilution in Mueller-Hinton agar, Gn-Ib. The conditions noted are these: Escherichia coli, read-out: Geometric Mean of MIC. How it is done:
as §1
GnIb: CETresistant E. coli (3) and K. pneumoniae (2)

The mark [5] stands for this setting: Gn-Ia, 5 strains, CET-sensitive.
[6] abbreviates: Gp-Ia, 5 strains, PC-sensitive S. aureus, read-out: Geometric Mean of MIC.
Where [7] appears, read: Gn-Ib, 5 strains, CET-resistant.
Setting [8] is: read-out: Geometric Mean of MIC, Gp-Ia, 5 strains, PC-sensitive S. aureus.

As usually defined, the MIC is the lowest concentration found to suppress growth. With `CO/N=C(\C(=O)NC1C(=O)N2C(C(=O)[O-])=C(C[N+]3(C)Cc4ccccc4C3)CS[C@H]12)c1csc(N)n1` (stereo partly drawn) [Example 14, 7-[(Z)-2-(2-Aminothiazol-4-yl)-2-methoxyiminoacetamido]-3-[(2-methyl-2-benzo[c]pyrrolinio)methyl]-3-cephem-4-carboxylate], the minimum inhibitory concentration (MIC) was 1.7 µg/mL (≈ 3.22 µM) in the experiment on PCresistant S. aureus; 0.13 µg/mL (≈ 0.246 µM) in experiment [1] (Gn-II, 5 strains); 0.042 µg/mL (≈ 0.0795 µM) in experiment [2] (setting [5]); 0.51 µg/mL (≈ 0.965 µM) in experiment [3] (setting [6]); 7.7 µg/mL (≈ 14.6 µM) with P. aeruginosa; 0.13 µg/mL (≈ 0.246 µM) in experiment [4] (setting [7]).

Consider `CO/N=C(\C(=O)NC1C(=O)N2C(C(=O)[O-])=C(C[N+]3(C)CCc4nc(N)sc4C3)CSC12)c1csc(N)n1` (stereo not drawn) [Example 15, 7-[(Z)-2-(2-Aminothiazol-4-yl)-2-methoxyiminoacetamido]-3-[(2-amino-4,5,7-tetrahydro-6-methyl-6-thiazolo[5,4-c]pyridinio)methyl]-3-cephem-4-carboxylate], for which the MIC in the experiment with PCresistant S. aureus worked out at 2.8 µg/mL (≈ 4.96 µM); in experiment [1] (Gn-II, 5 strains), 0.18 µg/mL (≈ 0.319 µM); in experiment [2] (setting [5]), 0.034 µg/mL (≈ 0.0602 µM); in experiment [3] (setting [8]), 1.1 µg/mL (≈ 1.95 µM); in the experiment on P. aeruginosa, 4.6 µg/mL (≈ 8.15 µM); in experiment [4], 0.16 µg/mL (≈ 0.283 µM).

For the molecule `CO/N=C(\C(=O)NC1C(=O)N2C(C(=O)[O-])=C(C[N+]3(CC(=O)O)CCCC3)CS[C@H]12)c1csc(N)n1` (stereo partly drawn) [Example 16, 7-[(Z)-2-(2-Aminothiazol-4-yl)-2-methoxyiminoacetamido]-3-[1-(carboxymethyl)pyrrolidinio]methyl-3-cephem-4-carboxylate], the MIC is 17 µg/mL (≈ 32.4 µM) in the experiment on PCresistant S. aureus; 0.14 µg/mL (≈ 0.267 µM) in experiment [1]; 0.02 µg/mL (≈ 0.0381 µM) in experiment [2]; 6.5 µg/mL (≈ 12.4 µM) in experiment [3] (setting [6]); 5.1 µg/mL (≈ 9.72 µM) in the experiment on P. aeruginosa; 0.23 µg/mL (≈ 0.438 µM) in experiment [4].

As to `CO/N=C(\C(=O)NC1C(=O)N2C(C(=O)[O-])=C(C[N+]3(CCO)CCCC3)CSC12)c1csc(N)n1` (stereo not drawn) [Example 17], the MIC was determined as 4.1 µg/mL (≈ 8.03 µM) in the experiment with PCresistant S. aureus; 0.2 µg/mL (≈ 0.392 µM) in experiment [1]; 0.057 µg/mL (≈ 0.112 µM) in experiment [2] (setting [5]); 1.6 µg/mL (≈ 3.13 µM) in experiment [3] (setting [6]); 4.1 µg/mL (≈ 8.03 µM) in the experiment with P. aeruginosa; 0.15 µg/mL (≈ 0.294 µM) in experiment [4].

For `C#CCO/N=C(\C(=O)NC1C(=O)N2C(C(=O)[O-])=C(C[N+]3(C)CCCC3)CSC12)c1csc(N)n1` (stereo not drawn) [Example 18, 7-[(Z)-2-(2-Aminothiazol-4-yl)-2-propargyloxyiminoacetamido]-3-(1-methyl-1-pyrrolidiniomethyl)-3-cephem-4-carboxylate], the MIC came out at 2.2 µg/mL (≈ 4.36 µM) in the experiment with PCresistant S. aureus; 0.36 µg/mL (≈ 0.713 µM) in experiment [1] (Gn-II, 5 strains); 0.061 µg/mL (≈ 0.121 µM) in experiment [2] (setting [5]); 0.77 µg/mL (≈ 1.53 µM) in experiment [3] (setting [6]); 4 µg/mL (≈ 7.93 µM) in the experiment with P. aeruginosa; 0.32 µg/mL (≈ 0.634 µM) in experiment [4].

Take `CO/N=C(\C(=O)NC1C(=O)N2C(C(=O)[O-])=C(C[N+]3(C)CCCC3C)CS[C@H]12)c1csc(N)n1` (stereo partly drawn) [Example 19, 7-[(Z)-2-(2-Aminothiazol-4-yl)-2-methoxyiminoacetamido]-3-(1,2-dimethylpyrrolidinio)methyl-3-cephem-4-carboxylate]: the MIC in the experiment with PCresistant S. aureus stood at 3.8 µg/mL (≈ 7.68 µM); in experiment [1] (Gn-II, 5 strains) it was 0.27 µg/mL (≈ 0.546 µM); in experiment [2] (setting [5]), 0.078 µg/mL (≈ 0.158 µM); in experiment [3] (setting [6]), 1.4 µg/mL (≈ 2.83 µM); with P. aeruginosa it was 6 µg/mL (≈ 12.1 µM); in experiment [4] (setting [7]) it was 0.27 µg/mL (≈ 0.546 µM).

For `CO/N=C(\C(=O)NC1C(=O)N2C(C(=O)[O-])=C(C[N+]3(C)CCSCC3)CS[C@H]12)c1csc(N)n1` (stereo partly drawn) [Example 20, 7-[(Z)-2-(2-Aminothiazol-4-yl)-2-methoxyiminoacetamido]-3-(4-methylthiomorpholinio)methyl-3-cephem-4-carboxylate], the minimal inhibitory concentration (MIC) was determined as 4.1 µg/mL (≈ 8 µM) with PCresistant S. aureus; 0.25 µg/mL (≈ 0.488 µM) in experiment [1] (Gn-II, 5 strains); 0.064 µg/mL (≈ 0.125 µM) in experiment [2] (setting [5]); 1.2 µg/mL (≈ 2.34 µM) in experiment [3] (setting [6]); 3.7 µg/mL (≈ 7.22 µM) in the experiment with P. aeruginosa; 0.25 µg/mL (≈ 0.488 µM) in experiment [4] (setting [7]).

In the case of `C=CC[N+]1(CC2=C(C(=O)[O-])N3C(=O)C(NC(=O)/C(=N\OC)c4csc(N)n4)[C@H]3SC2)CCCC1` (stereo partly drawn) [Example 21, 7-[(Z)-2-(2-Aminothiazol-4-yl)-2-methoxyiminoacetamido]-3-(N-allylpyrrolidinio)methyl-3-cephem-4-carboxylate], the minimal inhibitory concentration (MIC) with PCresistant S. aureus came out at 2.9 µg/mL (≈ 5.72 µM); in experiment [1] (Gn-II, 5 strains) it was 0.18 µg/mL (≈ 0.355 µM); in experiment [2] (setting [5]) it was 0.045 µg/mL (≈ 0.0888 µM); in experiment [3] (setting [8]), 1.1 µg/mL (≈ 2.17 µM); in the experiment on P. aeruginosa, 6.5 µg/mL (≈ 12.8 µM); in experiment [4] it was 0.15 µg/mL (≈ 0.296 µM).
